According to patent US12239636B2, “Combined sirolimus and nintedanib therapy for vascular lesions and hereditary hemorrhagic telangiectasia” (THE FEINSTEIN INSTITUTES FOR MEDICAL RESEARCH, priority 2018, dated 2025):
Where two headings read alike, the source gives them in different places.

Key:
[1] = molecular target: T1, VEGFR2 (Mus musculus, UniProt P35918); assay: phospho-VEGFR2 in liver ECs and retina of tBMP9/10ib mice; format: in vivo
T1 construct: protein homogenates of liver ECs isolated from tBMP9/10ib mice; from tissue; host or cells: liver endothelial cells and retina of tBMP9/10ib mice

[2] = molecular target: T2, VEGFR2 (Homo sapiens, UniProt P35968); assay: VEGF-induced VEGFR2 activation in primary ECs; format: cell-based
T2 construct: endogenous in cells; host or cells: primary ECs

[3] = LC-MS serum drug concentrations in injected pups
[4] = system: neonatal retina; assay: Dose finding: physiological retinal vascular development in pups; conditions: i.p. injection of pups, Nin every third day, not before P5
[5] = system: tBMP9/10ib mice; assay: Prevention of retinal vascular pathology in tBMP9/10ib HHT mice (treatment P3-P5, analysis at P6)
Protocol: Mouse pups were administered preventively and daily with Siro from P3 to P5 (0.5 mg/kg, i.p.) and with Nin at P5 (0.3 mg/kg, i.p.). Mice were then analyzed at P6, a time point at which retinal vessel dilation, hypervascularization, and AVMs can readily be observed and quantified in this model.

[6] = system: tBMP9/10ib mice; conditions: 0.5 mg/kg, P3-P5, i.p.; Ruiz et al., 2017; cited from earlier work
[7] = mouse, in vivo
[8] = tBMP9/10ib retinas at P6, Siro 0.5 mg/kg i.p. P3-P5, Nin 0.3 mg/kg i.p. at P5

T2 sequence (P35968 20-1356, species assumed): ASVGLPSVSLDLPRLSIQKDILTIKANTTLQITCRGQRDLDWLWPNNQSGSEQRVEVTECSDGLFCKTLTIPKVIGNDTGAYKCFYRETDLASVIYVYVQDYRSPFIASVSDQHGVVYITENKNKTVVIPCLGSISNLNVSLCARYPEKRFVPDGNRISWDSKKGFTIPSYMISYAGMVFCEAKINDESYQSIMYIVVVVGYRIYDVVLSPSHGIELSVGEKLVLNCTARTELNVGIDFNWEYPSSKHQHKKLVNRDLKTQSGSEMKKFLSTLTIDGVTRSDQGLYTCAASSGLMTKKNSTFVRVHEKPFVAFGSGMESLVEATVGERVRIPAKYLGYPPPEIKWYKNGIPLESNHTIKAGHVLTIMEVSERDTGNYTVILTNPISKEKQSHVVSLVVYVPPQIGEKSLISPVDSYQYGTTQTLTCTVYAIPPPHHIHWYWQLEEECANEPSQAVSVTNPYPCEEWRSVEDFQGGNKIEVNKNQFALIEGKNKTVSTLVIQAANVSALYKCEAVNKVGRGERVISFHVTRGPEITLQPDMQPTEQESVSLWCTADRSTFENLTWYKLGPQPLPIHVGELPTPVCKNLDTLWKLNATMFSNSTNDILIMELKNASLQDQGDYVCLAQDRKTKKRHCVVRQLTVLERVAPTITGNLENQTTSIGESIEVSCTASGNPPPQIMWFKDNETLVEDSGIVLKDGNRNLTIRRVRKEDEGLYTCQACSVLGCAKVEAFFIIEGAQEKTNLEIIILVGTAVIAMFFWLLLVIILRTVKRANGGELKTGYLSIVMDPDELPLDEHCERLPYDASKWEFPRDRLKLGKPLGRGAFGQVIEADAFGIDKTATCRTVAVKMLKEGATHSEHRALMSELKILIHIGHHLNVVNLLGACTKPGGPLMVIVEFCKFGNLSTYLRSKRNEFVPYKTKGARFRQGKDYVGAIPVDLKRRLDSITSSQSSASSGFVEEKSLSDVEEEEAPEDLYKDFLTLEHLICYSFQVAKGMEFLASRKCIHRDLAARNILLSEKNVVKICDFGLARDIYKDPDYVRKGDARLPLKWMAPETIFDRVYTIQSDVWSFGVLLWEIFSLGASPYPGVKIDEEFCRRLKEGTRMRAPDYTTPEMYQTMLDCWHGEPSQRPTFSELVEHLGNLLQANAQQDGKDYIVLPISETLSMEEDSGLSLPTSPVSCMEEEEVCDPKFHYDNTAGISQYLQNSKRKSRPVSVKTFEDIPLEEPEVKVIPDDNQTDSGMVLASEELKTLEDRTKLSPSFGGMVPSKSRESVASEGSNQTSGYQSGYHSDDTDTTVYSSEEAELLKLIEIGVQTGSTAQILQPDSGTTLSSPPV
T1 sequence (P35918 20-1345): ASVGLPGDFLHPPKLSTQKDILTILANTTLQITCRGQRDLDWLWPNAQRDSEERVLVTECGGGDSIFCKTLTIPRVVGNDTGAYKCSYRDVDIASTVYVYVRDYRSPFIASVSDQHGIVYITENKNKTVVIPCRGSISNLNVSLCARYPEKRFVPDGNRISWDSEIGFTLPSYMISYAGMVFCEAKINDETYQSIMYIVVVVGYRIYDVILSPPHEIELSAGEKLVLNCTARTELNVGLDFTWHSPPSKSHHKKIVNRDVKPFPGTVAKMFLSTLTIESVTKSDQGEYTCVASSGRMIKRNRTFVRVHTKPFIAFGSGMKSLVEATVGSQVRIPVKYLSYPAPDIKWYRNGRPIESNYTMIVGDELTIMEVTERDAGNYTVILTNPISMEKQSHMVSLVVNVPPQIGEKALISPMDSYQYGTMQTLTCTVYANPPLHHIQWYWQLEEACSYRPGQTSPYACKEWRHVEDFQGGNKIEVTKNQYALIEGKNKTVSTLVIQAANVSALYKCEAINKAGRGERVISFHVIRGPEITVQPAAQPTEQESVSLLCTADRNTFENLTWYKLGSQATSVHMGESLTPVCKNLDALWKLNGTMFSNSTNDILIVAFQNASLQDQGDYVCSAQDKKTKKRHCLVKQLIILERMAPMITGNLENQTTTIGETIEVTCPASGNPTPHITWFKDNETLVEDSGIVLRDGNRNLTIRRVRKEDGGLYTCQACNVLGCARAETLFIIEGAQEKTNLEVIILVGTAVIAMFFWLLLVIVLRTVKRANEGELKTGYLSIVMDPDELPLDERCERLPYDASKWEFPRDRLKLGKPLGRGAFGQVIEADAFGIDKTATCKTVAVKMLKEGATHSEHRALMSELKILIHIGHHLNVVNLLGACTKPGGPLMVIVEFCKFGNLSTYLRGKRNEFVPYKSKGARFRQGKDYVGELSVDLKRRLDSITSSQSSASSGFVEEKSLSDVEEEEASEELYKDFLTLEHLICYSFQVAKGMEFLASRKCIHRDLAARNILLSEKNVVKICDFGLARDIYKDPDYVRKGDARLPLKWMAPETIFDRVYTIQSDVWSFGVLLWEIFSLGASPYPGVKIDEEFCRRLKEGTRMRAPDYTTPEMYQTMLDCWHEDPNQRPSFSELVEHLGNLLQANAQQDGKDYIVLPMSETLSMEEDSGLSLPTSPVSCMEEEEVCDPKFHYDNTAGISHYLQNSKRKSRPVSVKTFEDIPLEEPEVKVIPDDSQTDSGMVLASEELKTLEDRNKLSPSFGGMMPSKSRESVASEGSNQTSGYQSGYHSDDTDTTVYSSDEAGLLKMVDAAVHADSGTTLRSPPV

| SMILES | elevation of activated phospho-VEGFR2 (p-VEGFR2) [1] | VEGF-induced VEGFR2 activation [2] | average serum concentration ([3]; injected P6 pups, Siro 0.5 mg/kg i.p., Nin 0.3 mg/kg i.p.) | average serum concentration ([3]; pup serum at P9, three additional days of treatment) | highest dose that did not affect normal vascular development [4] | vascular pathology ([5]; HHT mice, sirolimus 0.5 mg/kg/day, nintedanib 0.3 mg/kg/day, alone or combined) | AVM diameter [5, 8] | increase in density of the vascular plexus [5, 8] | vein dilation [5, 8] | AVM number ([5]; tBMP9/10ib retinas at P6, Siro 0.5 mg/kg i.p. P3-P5, Nin 0.3 mg/kg i.p. at P5, mean) | increase in density of the vascular plexus [6] | vein dilation [6] | average serum concentration [7] |
| --- | --- | --- | --- | --- | --- | --- | --- | --- | --- | --- | --- | --- | --- |
| COC(=O)c1ccc2c(c1)NC(=O)/C2=C(\Nc1ccc(N(C)C(=O)CN2CCN(C)CC2)cc1)c1ccccc1 [Nin, nintedanib] | significantly inhibited | fully inhibited | 5.3 nM | 24.7 nM | 0.3 mg/kg | moderate-to-negligible effect | failed to reduce | failed to reduce | failed to reduce | failed to reduce |  |  |  |
| C=CC[C@@H]1/C=C(\C)C[C@H](C)C[C@H](OC)[C@H]2O[C@@](O)(C(=O)C(=O)N3CCCC[C@H]3C(=O)O[C@H](/C(C)=C/[C@@H]3CC[C@@H](O)[C@H](OC)C3)[C@H](C)[C@@H](O)CC1=O)[C@H](C)C[C@@H]2OC [Tac, tacrolimus] |  |  |  |  |  |  |  |  |  |  | prevented | prevented |  |
| CO[C@H]1C[C@@H]2CC[C@@H](C)[C@@](O)(O2)C(=O)C(=O)N2CCCC[C@H]2C(=O)O[C@H]([C@H](C)C[C@@H]2CC[C@@H](O)[C@H](OC)C2)CC(=O)[C@H](C)/C=C(\C)[C@@H](O)[C@@H](OC)C(=O)[C@H](C)C[C@H](C)/C=C/C=C/C=C/1C [Siro, sirolimus] |  |  |  |  | 0.5 mg/kg |  |  |  |  |  |  |  | 22.6 nM |
